Assay results: patent US4247687A, “Aminoglycoside antibiotic derivatives and process for their preparation” (Farmitalia Carlo Erba S.p.A., priority 1979, dated 1981)
Converted amounts (≈) assume the structure as drawn. Where two headings read alike, the source gives them in different places.

Columns and labels:
Assay type in all cases: cell-based
[1] = system: E. coli K 12 R 112 (NPT I); experiment: Conventional agar dilution, MIC; conditions: Escherichia coli
Experimental: (§1) The antibacterial activity is determined by the conventional agar dilution method, and the minimal inhibitory concentration (MIC) is expressed in mcg/ml.

[2] = system: E. coli K 12 R 118 (NPT II); experiment: Conventional agar dilution, MIC; conditions: Escherichia coli
Experimental: as §1

E. coli K 12 R 55 (GNT) = experiment: Conventional agar dilution, MIC; conditions: Escherichia coli
Experimental: as §1

Escherichia coli K 12 = experiment: Conventional agar dilution, MIC; conditions: K12
Experimental: as §1

P. aeruginosa 19660 = experiment: Conventional agar dilution, MIC; conditions: Pseudomonas aeruginosa
Experimental: as §1

P. aeruginosa 47823 = experiment: Conventional agar dilution, MIC; conditions: Pseudomonas aeruginosa
Experimental: as §1

P. aeruginosa 4 = experiment: Conventional agar dilution, MIC; conditions: Pseudomonas aeruginosa
Experimental: as §1

P. aeruginosa 53585 = experiment: Conventional agar dilution, MIC; conditions: Pseudomonas aeruginosa
Experimental: as §1

P. aeruginosa 53825 = experiment: Conventional agar dilution, MIC; conditions: Pseudomonas aeruginosa
Experimental: as §1

P. aeruginosa 5 = experiment: Conventional agar dilution, MIC; conditions: Pseudomonas aeruginosa
Experimental: as §1

P. aeruginosa 6 = experiment: Conventional agar dilution, MIC; conditions: Pseudomonas aeruginosa
Experimental: as §1

P. aeruginosa B = experiment: Conventional agar dilution, MIC; conditions: Pseudomonas aeruginosa
Experimental: as §1

P. mirabilis V 15 = experiment: Conventional agar dilution, MIC; conditions: Proteus mirabilis, V15
Experimental: as §1

P. sp. V 16 = experiment: Conventional agar dilution, MIC
Experimental: as §1

Proteus mirabilis 525 = experiment: Conventional agar dilution, MIC
Experimental: as §1

Proteus vulgaris = experiment: Conventional agar dilution, MIC
Experimental: as §1

[3] = system: Pseudomonas aeruginosa 9229; experiment: Conventional agar dilution, MIC
Experimental: as §1

[4] = system: Staphylococcus aureus 209 P; experiment: Conventional agar dilution, MIC
Experimental: as §1

bacterial strains = experiment: Antibacterial "in vitro" activity, conventional agar dilution (overall); conditions: in words, compared with neomycin B and paromomycin (1)
Experimental: as §1

| Structure (SMILES) | MIC [1] | MIC [2] | MIC (E. coli K 12 R 55 (GNT)) | MIC (Escherichia coli K 12; Escherichia coli) | MIC (P. aeruginosa 19660; 19660) | MIC (P. aeruginosa 47823; 47823) | MIC (P. aeruginosa 4; 4) | MIC (P. aeruginosa 53585; 53585) | MIC (P. aeruginosa 53825; 53825) | MIC (P. aeruginosa 5; 5) | MIC (P. aeruginosa 6; 6) | MIC (P. aeruginosa B) | MIC (P. mirabilis V 15) | MIC (P. sp. V 16) | MIC (Proteus mirabilis 525; Proteus mirabilis, 525) | MIC (Proteus vulgaris) | MIC ([3]; Pseudomonas aeruginosa, 9229) | MIC ([4]; Staphylococcus aureus, 209P) | further results |
| --- | --- | --- | --- | --- | --- | --- | --- | --- | --- | --- | --- | --- | --- | --- | --- | --- | --- | --- | --- |
| NC[C@@H]1O[C@H](O[C@H]2[C@@H](O)[C@H](O[C@@H]3[C@@H](O)[C@H](N)C[C@H](N)[C@H]3O[C@H]3O[C@H](CN)[C@@H](O)[C@H](O)[C@H]3N)O[C@@H]2CO)[C@H](N)[C@@H](O)[C@@H]1O [Neomycin B, neomycin B] | > 200 µg/mL | 200 µg/mL (≈ 325 µM) | 6.25 µg/mL (≈ 10.2 µM) | 6.25 µg/mL (≈ 10.2 µM) | 50 µg/mL (≈ 81.3 µM) | > 100 µg/mL | 25 µg/mL (≈ 40.7 µM) | > 100 µg/mL | > 100 µg/mL | 50 µg/mL (≈ 81.3 µM) | 25 µg/mL (≈ 40.7 µM) | > 100 µg/mL | 25 µg/mL (≈ 40.7 µM) | > 100 µg/mL | 12.5 µg/mL (≈ 20.3 µM) | 25 µg/mL (≈ 40.7 µM) | 100 µg/mL (≈ 163 µM) | 1.55 µg/mL (≈ 2.52 µM) | – |
| NC[C@@H]1O[C@H](O[C@H]2[C@@H](O)[C@H](O[C@@H]3[C@@H](O)[C@H](N)C[C@H](N)[C@H]3O[C@H]3O[C@H](CO)[C@@H](O)[C@H](O)[C@H]3N)O[C@@H]2CO)[C@H](N)[C@@H](O)[C@@H]1O [Paromomycin (1), paromomycin] | > 200 µg/mL | 200 µg/mL (≈ 325 µM) | 12.5 µg/mL (≈ 20.3 µM) | 12.5 µg/mL (≈ 20.3 µM) | > 100 µg/mL | > 100 µg/mL | > 100 µg/mL | > 100 µg/mL | > 100 µg/mL | > 100 µg/mL | > 100 µg/mL | > 100 µg/mL | 25 µg/mL (≈ 40.6 µM) | > 100 µg/mL | 25 µg/mL (≈ 40.6 µM) | 50 µg/mL (≈ 81.2 µM) | > 100 µg/mL | 1.55 µg/mL (≈ 2.52 µM) | – |
| NC[C@@H]1C[C@H](O)[C@@H](N)[C@@H](O[C@H]2[C@H](O[C@@H]3O[C@H](CO)[C@@H](O[C@H]4O[C@@H](CN)[C@@H](O)[C@H](O)[C@H]4N)[C@H]3O)[C@@H](O)[C@H](N)C[C@@H]2N)O1 [compound 8, 4'-deoxyneomycin B] | > 200 µg/mL | 25 µg/mL (≈ 41.8 µM) | 3.12 µg/mL (≈ 5.21 µM) | – | – | – | – | – | – | – | – | – | – | > 100 µg/mL | – | – | – | – | MIC (Escherichia coli K 12; Escherichia coli K 12, agar dilution, read-out: MIC): 3.12 µg/mL (≈ 5.21 µM); MIC (P. aeruginosa 19660; P. aeruginosa 19660, agar dilution, read-out: MIC): 25 µg/mL (≈ 41.8 µM); MIC (P. aeruginosa 47823; P. aeruginosa 47823, agar dilution, read-out: MIC): 12.5 µg/mL (≈ 20.9 µM); MIC (P. aeruginosa 4; P. aeruginosa 4, agar dilution, read-out: MIC): 12.5 µg/mL (≈ 20.9 µM); MIC (P. aeruginosa 53585; P. aeruginosa 53585, agar dilution, read-out: MIC): 25 µg/mL (≈ 41.8 µM); MIC (P. aeruginosa 53825; P. aeruginosa 53825, agar dilution, read-out: MIC): 50 µg/mL (≈ 83.5 µM); MIC (P. aeruginosa 5; P. aeruginosa 5, agar dilution, read-out: MIC): 25 µg/mL (≈ 41.8 µM); MIC (P. aeruginosa 6; P. aeruginosa 6, agar dilution, read-out: MIC): 12.5 µg/mL (≈ 20.9 µM); MIC (P. aeruginosa B; P. aeruginosa B, agar dilution, read-out: MIC): 25 µg/mL (≈ 41.8 µM); MIC (P. mirabilis V 15; P. mirabilis V 15, agar dilution, read-out: MIC): 12.5 µg/mL (≈ 20.9 µM); MIC (Proteus mirabilis 525; Proteus mirabilis 525, agar dilution, read-out: MIC): 6.2 µg/mL (≈ 10.4 µM); MIC (Proteus vulgaris; agar dilution, read-out: MIC): 12.5 µg/mL (≈ 20.9 µM); MIC ([3]; Pseudomonas aeruginosa 9229, agar dilution, read-out: MIC): 25 µg/mL (≈ 41.8 µM); MIC ([4]; Staphylococcus aureus 209 P, agar dilution, read-out: MIC): 0.77 µg/mL (≈ 1.29 µM); antibacterial "in vitro" activity (bacterial strains; listed as 4'-Deoxy-neomycin B (8)): higher and broader when compared with those of neomycin B and paromomycin (1); antibacterial "in vitro" activity (bacterial strains; listed as 4'-deoxy-neomycin B (8)): higher and broader when compared with that of neomycin B |
